Results: paper PMC3344910 (Bioorganic & medicinal chemistry, 2012)
Read-outs that look alike come from different tables or passages of the source.

What was measured:
KOP receptors [1] = target: T1, KOP receptors (Homo sapiens, UniProt P41145); conditions: compared to 1 ref 48; cited from earlier work
KOP receptors [2] = target: T1, KOP receptors; conditions: compared to 2 (U50,488) ref 32; cited from earlier work
KOP receptors [3] = target: T1, KOP receptors; experiment: biochemical; type: biochemical
human MOP receptor = human MOP receptor (Homo sapiens, UniProt P35372); experiment: biochemical; type: binding
Sequence of human MOP receptor (P35372 whole entry): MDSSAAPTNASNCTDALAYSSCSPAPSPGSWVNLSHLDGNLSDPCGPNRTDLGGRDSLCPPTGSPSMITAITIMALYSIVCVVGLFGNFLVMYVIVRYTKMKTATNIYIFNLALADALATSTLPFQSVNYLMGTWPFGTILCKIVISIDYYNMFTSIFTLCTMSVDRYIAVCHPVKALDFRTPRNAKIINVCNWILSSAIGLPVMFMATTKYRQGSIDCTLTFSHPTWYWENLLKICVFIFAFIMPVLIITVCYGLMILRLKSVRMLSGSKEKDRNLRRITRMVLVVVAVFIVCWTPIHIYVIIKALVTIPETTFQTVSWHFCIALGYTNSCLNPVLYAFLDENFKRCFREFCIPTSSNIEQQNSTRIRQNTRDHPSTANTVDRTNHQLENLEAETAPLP

human DOP receptor = human DOP receptor (Homo sapiens, UniProt P41143); experiment: biochemical; type: binding
Sequence of human DOP receptor (P41143 whole entry): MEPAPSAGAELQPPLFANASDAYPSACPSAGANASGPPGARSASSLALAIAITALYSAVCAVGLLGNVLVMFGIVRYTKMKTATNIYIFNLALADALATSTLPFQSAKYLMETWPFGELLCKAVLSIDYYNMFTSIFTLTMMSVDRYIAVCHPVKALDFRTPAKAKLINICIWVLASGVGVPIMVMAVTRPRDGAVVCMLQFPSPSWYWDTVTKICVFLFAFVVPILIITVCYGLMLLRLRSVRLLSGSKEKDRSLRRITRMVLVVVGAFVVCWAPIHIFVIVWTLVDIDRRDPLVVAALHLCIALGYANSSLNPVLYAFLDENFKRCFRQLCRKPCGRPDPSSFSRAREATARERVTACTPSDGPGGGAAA

KOP receptors [4] = target: T1, KOP receptors; experiment: biochemical; type: binding
KOP receptors [5] = target: T1, KOP receptors; conditions: read-out: KOP Ki, previous report; cited from earlier work
KOP receptors [6] = target: T1, KOP receptors; type: cell-based

T1 sequence (P41145 whole entry): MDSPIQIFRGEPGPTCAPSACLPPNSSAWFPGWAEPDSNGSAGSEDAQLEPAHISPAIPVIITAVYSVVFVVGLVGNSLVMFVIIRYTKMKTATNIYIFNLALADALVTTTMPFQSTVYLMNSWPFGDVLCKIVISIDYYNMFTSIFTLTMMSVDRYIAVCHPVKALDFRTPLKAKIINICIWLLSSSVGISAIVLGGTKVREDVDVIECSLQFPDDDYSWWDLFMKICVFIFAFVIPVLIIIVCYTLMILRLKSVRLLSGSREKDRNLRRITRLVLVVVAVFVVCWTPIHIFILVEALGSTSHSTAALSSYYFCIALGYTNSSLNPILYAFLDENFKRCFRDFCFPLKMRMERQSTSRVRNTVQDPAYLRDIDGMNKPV

COC(=O)[C@@H]1C[C@H](OC(C)=O)C(=O)[C@H]2[C@@]1(C)CC[C@H]1C(=O)O[C@@H](c3ccoc3)C[C@]21C [Compound 3, (2R,4aR,6aR,7R,9S,10aS,10bR)-methyl 9-acetoxy-2-(furan-3-yl)-6a,10b-dimethyl-4,10-dioxododecahydro-1H-benzo[f]isochromene-7-carboxylate]
Emax, β-arrestin 2 DiscoveRx assay (KOP receptors [1]): 126 ± 10 | Emax, [35S]GTP-γ-S assay, previous report (KOP receptors [2]): 73 ± 6 | less potent than 1 in the [35S]GTP-γ-S assay (KOP receptors [3]): 18 fold

COC(=O)[C@@H]1C[C@H](OC(C)=O)C(=O)[C@H]2[C@@]1(C)CC[C@H]1C(=O)OC(/C=C\c3ccoc3)C[C@]21C (stereo partly drawn) [Compound 9, (4aR,6aR,7R,9S,10aS,10bR)-methyl 9-acetoxy-2-((Z)-2-(furan-3-yl)vinyl)-6a,10b-dimethyl-4,10-dioxododecahydro-1H-benzo[f]isochromene-7-carboxylate]
EC50 (KOP receptors [3]): 1.37 µM | Emax (KOP receptors [3]; read-out: KOP Emax ± SD, stimulation of [35S]GTP-γ-S binding): 105 ± 4% | Ki (human MOP receptor): 2.6 µM | Ki (human DOP receptor): > 10 µM | remaining activity at 10 µM (human DOP receptor; read-out: DOP percent of control produced by the 10 μM test drug): 94% | Ki (KOP receptors [4]): 0.03 ± 0.004 µM | higher affinity for the KOP receptor compared to trans analogue 8 (KOP receptors [4]): ~40 fold

COC(=O)[C@@H]1C[C@H](OC(C)=O)C(=O)[C@H]2[C@@]1(C)CC[C@H]1C(=O)O[C@H](C(=O)c3ccccc3)C[C@]21C [Compound 12, (2S,4aR,6aR,7R,9S,10aS,10bR)-methyl 9-acetoxy-2-benzoyl-6a,10b-dimethyl-4,10-dioxododecahydro-1H-benzo[f]isochromene-7-carboxylate]
EC50 (KOP receptors [3]): 1.37 ± 0.18 µM

COC(=O)[C@@H]1C[C@H](OC(C)=O)C(=O)[C@H]2[C@@]1(C)CC[C@H]1C(=O)O[C@H](C(=O)c3cccc(C(N)=O)c3)C[C@]21C [Compound 19, (2S,4aR,6aR,7R,9S,10aS,10bR)-methyl 9-acetoxy-2-(3-carbamoylbenzoyl)-6a,10b-dimethyl-4,10-dioxododecahydro-1H-benzo[f]isochromene-7-carboxylate]
less potent than 1 in the [35S]GTP-γ-S assay (KOP receptors [3]): 18 fold | increased KOP affinity compared to 17 (KOP receptors [4]): approximately 3 fold

COC(=O)[C@@H]1C[C@H](OC(C)=O)C(=O)[C@H]2[C@@]1(C)CC[C@H]1C(=O)O[C@H](C(=O)c3cccc(C#N)c3)C[C@]21C [Compound 20, (2S,4aR,6aR,7R,9S,10aS,10bR)-methyl 9-acetoxy-2-(3-cyanobenzoyl)-6a,10b-dimethyl-4,10-dioxododecahydro-1H-benzo[f]isochromene-7-carboxylate]
decreased KOP affinity compared to 19 (KOP receptors [4]): 6 fold

COC(=O)[C@@H]1C[C@H](OC(C)=O)C(=O)[C@H]2[C@@]1(C)CC[C@H]1C(=O)O[C@H](C(=O)c3ccco3)C[C@]21C [Compound 23, (2S,4aR,6aR,7R,9S,10aS,10bR)-methyl 9-acetoxy-2-(furan-2-carbonyl)-6a,10b-dimethyl-4,10-dioxododecahydro-1H-benzo[f]isochromene-7-carboxylate]
Ki (KOP receptors [5]): > 1 µM

COC(=O)[C@@H]1C[C@H](OC(C)=O)C(=O)[C@H]2[C@@]1(C)CC[C@H]1C(=O)O[C@H](C(=O)c3ccsc3)C[C@]21C [Compound 26, (2S,4aR,6aR,7R,9S,10aS,10bR)-methyl 9-acetoxy-6a,10b-dimethyl-4,10-dioxo-2-(thiophene-3-carbonyl)dodecahydro-1H-benzo[f]isochromene-7-carboxylate]
more potent than 25 as an agonist in the [35S]GTP-γ-S assay (KOP receptors [3]): approximately 3 fold

C/C=C\C(=O)[C@@H]1C[C@]2(C)[C@H]3C(=O)[C@@H](OC(C)=O)C[C@@H](C(=O)OC)[C@]3(C)CC[C@H]2C(=O)O1 [Compound 30, (2S,4aR,6aR,7R,9S,10aS,10bR)-methyl 9-acetoxy-2-((Z)-but-2-enoyl)-6a,10b-dimethyl-4,10-dioxododecahydro-1H-benzo[f]isochromene-7-carboxylate]
decrease in KOP affinity compared to 12 (KOP receptors [4]): 4 fold

COC(=O)[C@@H]1C[C@H](OC(C)=O)C(=O)[C@H]2[C@@]1(C)CC[C@H]1C(=O)O[C@H](c3ccco3)C[C@]21C [Compound 31, (2S,4aR,6aR,7R,9S,10aS,10bR)-methyl 9-acetoxy-2-(furan-2-yl)-6a,10b-dimethyl-4,10-di-oxododecahydro-1H-benzo[f]isochromene-7-carboxylate]
decrease in potency compared to 1, Ca2+ mobilization (KOP receptors [6]): 2 fold | less potent than 1 in the [35S]GTP-γ-S assay (KOP receptors [3]): 3 fold | Ki (KOP receptors [4]): 0.0087 ± 0.0004 µM | increase in affinity at KOP receptors compared to 23 (KOP receptors [4]): 9 fold
